From patent publication US7335723B2, “Melanin-concentrating hormone antagonists” (priority 2001, dated 2008)
Where a SMILES comes first, the peptide text is derived from it. Bridges are numbered along the chain shown (N, C = ends). [ ]: non-standard residue; d: D form. The star is where a group is joined. Pentanoyl(5-guanidino) = NC(N)=NCCCCC(=O)*; Nle = CCCC[C@H](N)C(=O)O; Ava = NCCCCC(=O)O

How the values were obtained:
rat MCH-1R [1] = molecular target: T1, rat MCH-1R (Rattus norvegicus, UniProt P97639); test: Aequorin bioluminescence functional assay, MCH-1R agonist activity; settings: for MCH-1R Agonist Activation %: 293-AEQ17 cells expressing rat MCH-1R
T1 sequence (P97639 whole entry): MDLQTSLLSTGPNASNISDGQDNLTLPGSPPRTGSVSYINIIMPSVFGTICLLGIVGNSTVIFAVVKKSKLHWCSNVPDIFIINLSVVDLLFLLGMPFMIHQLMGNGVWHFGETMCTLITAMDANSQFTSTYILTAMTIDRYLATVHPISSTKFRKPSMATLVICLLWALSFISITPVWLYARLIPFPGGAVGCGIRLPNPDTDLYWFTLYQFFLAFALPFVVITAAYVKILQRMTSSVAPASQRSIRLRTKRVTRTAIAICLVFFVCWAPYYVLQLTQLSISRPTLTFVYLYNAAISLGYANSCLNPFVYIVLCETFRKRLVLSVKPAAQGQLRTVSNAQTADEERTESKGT

human MCH-2R = human MCH-2R (Homo sapiens, UniProt Q969V1); test: Aequorin bioluminescence functional assay, MCH-2R agonist activity; settings: for MCH-2R Agonist Activation %: 293-AEQ17 cells expressing human MCH-2R
human MCH-2R, sequence (Q969V1 whole entry): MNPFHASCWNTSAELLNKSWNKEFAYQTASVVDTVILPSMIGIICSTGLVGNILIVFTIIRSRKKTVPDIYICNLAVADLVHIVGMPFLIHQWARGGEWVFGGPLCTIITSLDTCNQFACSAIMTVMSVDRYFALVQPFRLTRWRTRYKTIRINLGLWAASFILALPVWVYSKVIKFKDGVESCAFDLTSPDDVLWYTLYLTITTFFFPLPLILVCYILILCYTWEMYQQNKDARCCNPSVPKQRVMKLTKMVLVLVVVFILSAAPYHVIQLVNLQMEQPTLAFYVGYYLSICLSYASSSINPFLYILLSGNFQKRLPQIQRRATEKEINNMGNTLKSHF

rat MCH-1R [2] = molecular target: T1, rat MCH-1R; test: Antagonist assay, 293-AEQ17 cells expressing rat MCH-1R; assay type: cell-based; design: expressed in transfected cells; host or cells: 293-AEQ17 (aequorin-expressing HEK-293 reporter line); settings: for Kb: determined per Trends in Pharmacol. Sci. 14:237-239, 1993
Description: Cells were grown in DMEM (high glucose) supplemented with 10% FBS (Hyclone), 500 μg/ml G418, 200 μg/ml hygromycin and 25 mM HEPES in T75 flasks.
The assay itself involved charging apoaequorin with coelenterazine cp(Molecular Probes, C-14260) and was performed as follows:
1. Confluent T75 flasks are rinsed 1× with 12 ml Hams F12 medium+300 μM glutathione+0.1% FBS.
2. The cells were charged by adding 8 ml Hams F12+0.1% FBS+300 μM glutathione+10 μM coelenterazine, incubate at 37° C. for 1 hour.
4. ECB (6 ml) is added to the flask and the cells are dissociated with a rubber-tipped scraper, centrifuged for 5 minutes at 2500 rpm and the cell pellet resuspended in 5 ml ECB. The cells are counted and diluted to 5×10^5/ml.
Binding and agonist activity at the MCH-1R and MCH-2R was determined as described in Examples 2 and 3. Antagonist IC50 was determined as described in Example 4. Kb was determined using the procedures described in Trends in Pharmacol. Sci. 14:237-239, 1993.

human MCH-1R = human MCH-1R (Homo sapiens, UniProt Q99705); test: MCH-1R binding assay, inhibition of [125I]-human MCH binding to membranes
human MCH-1R, sequence (Q99705 whole entry): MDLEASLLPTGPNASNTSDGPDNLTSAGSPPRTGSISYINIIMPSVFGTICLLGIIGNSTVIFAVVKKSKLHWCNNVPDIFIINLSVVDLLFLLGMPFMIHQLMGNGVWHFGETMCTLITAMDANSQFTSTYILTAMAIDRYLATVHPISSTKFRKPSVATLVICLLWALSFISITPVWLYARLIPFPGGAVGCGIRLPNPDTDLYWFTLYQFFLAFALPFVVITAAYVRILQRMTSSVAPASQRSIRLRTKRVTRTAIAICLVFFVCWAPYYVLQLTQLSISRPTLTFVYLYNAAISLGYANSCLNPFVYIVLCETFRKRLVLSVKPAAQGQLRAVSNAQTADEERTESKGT
Description: Cell membranes were prepared on ice. Each T-75 flask was rinsed twice with 10 ml of Enzyme-free Cell Dissociation Buffer (Specialty Media, Lavallette, N.J.), and the cell monolayer was detached in an additional 10 ml of Enzyme-free Cell Dissociation Buffer by incubation at room temperature for 10 minutes. Dissociated cells were centrifuged (500×g for 10 minutes at 4° C.), resuspended in 5 ml homogenization buffer (10 mM Tris-HCl, pH 7.4, 0.01 mM Pefabloc, 10 μM phosphoramidon, 40 μg/ml bacitracin) and then homogenized using a glass homogenizer (10-15 strokes). The homogenate was centrifuged for 10 minutes (1,000×g at 4° C.). The resulting supernatant was then centrifuged at 38,700×g for 15 minutes at 4° C. Pelleted membranes were resuspended (passed through 25 gauge needle 5 times), snap-frozen on liquid nitrogen, and stored at −80° C. until use.
Bound radioligand was separated by rapid vacuum filtration (Packard Filtermate 96-well cell harvester) through GF/C filters pretreated for 1 hour with 1% polyethylenimine. After application of the membrane suspension to the filter, the filters were washed 3 times with 3 ml each of ice-cold 50 mM Tris-HCl, pH 7.4, 10 mM MgCl2, 2 mM EDTA, 0.04% Tween 20 and the bound radioactivity on the filters was quantitated by scintillation counting (TopCount device).
For the SPA-based assay, WGA-PVT beads (NEN Life Sciences Products) were resuspended in Dulbecco's PBS with calcium and magnesium (500 mg beads in 4 ml PBS). […] The suspension was mixed gently for 20 minutes, 12.3 ml of assay buffer and protease inhibitors were added (final concentration given): 2 μg/ml leupeptin, 10 μM phosphoramidon, 40 μg/ml bacitracin, 5 μg/ml aprotinin, 0.1 mM Pefabloc.
Coated beads were kept on ice until use.

SMILES	EC50 (rat MCH-1R [1]) [µM]	MCH-1R Agonist Activation % (rat MCH-1R [1]) [%]	EC50 (human MCH-2R) [µM]	MCH-2R Agonist Activation % (human MCH-2R) [%]	IC50 (rat MCH-1R [2]) [nM]	Kb (rat MCH-1R [2]) [nM]	IC50 (human MCH-1R) [nM]
CSCC[C@@H]1NC(=O)[C@@H](NC(=O)CCCCNC(=N)N)CSSC[C@@H](C(N)=O)NC(=O)CCCCNC(=O)CCCCNC(=O)[C@H](Cc2ccc(O)cc2)NC(=O)[C@H](C(C)C)NC(=O)[C@H](CCCNC(=N)N)NC(=O)CNC(=O)[C@H](CC(C)C)NC1=O [SEQ. ID. NO. 11]	> 10	3	> 10	91	2.9	1.25	3
CSCC[C@@H]1NC(=O)[C@@H](NC(=O)CCCCNC(=N)N)CSSC[C@@H](C(N)=O)NC(=O)CCCNC(=O)CCCNC(=O)[C@H](Cc2ccc(O)cc2)NC(=O)[C@H](C(C)C)NC(=O)[C@H](CCCNC(=N)N)NC(=O)CNC(=O)[C@H](CC(C)C)NC1=O [SEQ. ID. NO. 13]	> 10	3.5	> 10	35	6.84	3	49
CSCC[C@@H]1NC(=O)[C@@H](NC(=O)CCCCNC(=N)N)CSSC[C@@H](C(N)=O)NC(=O)CCNC(=O)CCNC(=O)[C@H](Cc2ccc(O)cc2)NC(=O)[C@H](C(C)C)NC(=O)[C@H](CCCNC(=N)N)NC(=O)CNC(=O)[C@H](CC(C)C)NC1=O [SEQ. ID. NO. 14]	> 10	3.6	> 10	32	6.8	3	176
CCCC[C@@H]1NC(=O)[C@@H](NC(=O)CCCCNC(=N)N)CSSC[C@@H](C(N)=O)NC(=O)CCCCNC(=O)CCCCNC(=O)[C@H](Cc2ccc(O)cc2)NC(=O)[C@H](C(C)C)NC(=O)[C@H](CCCNC(=N)N)NC(=O)CNC(=O)[C@H](CC(C)C)NC1=O [SEQ. ID. NO. 16] ({Pentanoyl(5-guanidino)}-C[Nle]LGRVY[Ava][Ava]C-NH2; disulfide 1-10; C-terminus assumed)	> 10	3	> 10	59	13.8	6	11
CSCC[C@@H]1NC(=O)[C@@H](NC(=O)CCCCNC(=N)N)CSSC[C@@H](C(=O)O)NC(=O)CCCCNC(=O)CCCCNC(=O)[C@H](Cc2ccc(O)cc2)NC(=O)[C@H](C(C)C)NC(=O)[C@H](CCCNC(=N)N)NC(=O)CNC(=O)[C@H](CC(C)C)NC1=O [SEQ. ID. NO. 18]	> 10	3.8	> 10	38	75.7	32.9	290
CC(C)C[C@@H]1NC(=O)[C@H](C)NC(=O)[C@@H](NC(=O)CCCCNC(=N)N)CSSC[C@@H](C(N)=O)NC(=O)CCCCNC(=O)CCCCNC(=O)[C@H](Cc2ccc(O)cc2)NC(=O)[C@H](C(C)C)NC(=O)[C@H](CCCNC(=N)N)NC(=O)CNC1=O [SEQ. ID. NO. 19] ({Pentanoyl(5-guanidino)}-CALGRVY[Ava][Ava]C-NH2; disulfide 1-10 (inferred); C-terminus assumed)	> 10	–	> 10	45	67	29	140
CSCC[C@@H]1NC(=O)[C@@H](NC(=O)CCCCNC(=N)N)CSSC[C@@H](C(N)=O)NC(=O)CCCCNC(=O)CCCCNC(=O)[C@H](Cc2ccc(O)cc2)NC(=O)[C@H](C)NC(=O)[C@H](CCCNC(=N)N)NC(=O)CNC(=O)[C@H](CC(C)C)NC1=O [SEQ. ID. NO. 20] ({Pentanoyl(5-guanidino)}-CMLGRAY[Ava][Ava]C-NH2; disulfide 1-10; C-terminus assumed)	> 10	3.4	> 10	38	4.7	2	29
